# Data: patent publication US20210317134A1, “UBIQUITIN-SPECIFIC-PROCESSING PROTEASE 7 (USP7) MODULATORS AND USES THEREOF” (RAPT THERAPEUTICS, INC., priority 2019, published 2021)
# Target: USP7 (Homo sapiens, UniProt Q93009)
# Test: USP7 inhibitory potency (Table 1)
# Type: biochemical
# USP7, sequence (Q93009 whole entry): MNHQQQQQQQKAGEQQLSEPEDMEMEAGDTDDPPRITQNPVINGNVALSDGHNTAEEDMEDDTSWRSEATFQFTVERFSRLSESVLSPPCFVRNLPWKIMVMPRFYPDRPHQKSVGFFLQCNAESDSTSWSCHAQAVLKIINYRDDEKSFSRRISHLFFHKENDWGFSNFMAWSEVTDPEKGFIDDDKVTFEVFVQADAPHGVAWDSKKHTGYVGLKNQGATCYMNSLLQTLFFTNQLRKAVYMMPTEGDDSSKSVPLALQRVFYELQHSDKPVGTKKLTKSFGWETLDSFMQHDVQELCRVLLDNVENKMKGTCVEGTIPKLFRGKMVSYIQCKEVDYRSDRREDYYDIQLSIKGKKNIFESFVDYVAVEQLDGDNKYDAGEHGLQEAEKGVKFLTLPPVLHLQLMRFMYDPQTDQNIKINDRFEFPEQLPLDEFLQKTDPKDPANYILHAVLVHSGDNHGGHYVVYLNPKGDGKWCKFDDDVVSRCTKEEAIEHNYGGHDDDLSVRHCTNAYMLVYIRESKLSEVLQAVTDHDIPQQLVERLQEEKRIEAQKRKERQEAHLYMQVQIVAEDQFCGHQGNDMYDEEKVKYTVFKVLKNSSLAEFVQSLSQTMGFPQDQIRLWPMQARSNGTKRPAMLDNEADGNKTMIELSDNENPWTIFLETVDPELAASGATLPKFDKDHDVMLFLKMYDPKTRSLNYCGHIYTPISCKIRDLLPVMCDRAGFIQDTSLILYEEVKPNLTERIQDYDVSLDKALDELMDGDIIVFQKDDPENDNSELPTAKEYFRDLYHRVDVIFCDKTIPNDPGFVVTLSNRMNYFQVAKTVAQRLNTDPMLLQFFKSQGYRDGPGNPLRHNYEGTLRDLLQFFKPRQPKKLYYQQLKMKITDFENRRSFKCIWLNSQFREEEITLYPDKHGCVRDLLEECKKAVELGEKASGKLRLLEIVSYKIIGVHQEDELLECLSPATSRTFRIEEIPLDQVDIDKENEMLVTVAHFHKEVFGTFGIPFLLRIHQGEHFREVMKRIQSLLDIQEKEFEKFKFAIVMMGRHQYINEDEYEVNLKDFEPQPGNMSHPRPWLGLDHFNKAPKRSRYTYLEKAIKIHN
row,Compound,IC50
1,"Clc1cc2c(c(-c3ccnc4[nH]ccc34)c1)OC(c1onc3c1CCNC3)C2 (stereo not shown) [3-(5-chloro-7-(1H-pyrrolo[2,3-b]pyridin-4-yl)-2,3-dihydrobenzofuran-2-yl)-4,5,6,7-tetrahydroisoxazolo[3,4-c]pyridine]",1000 to 10000 nM
2,"O=C1CCC(=O)N1Cc1cc2ncnc(-c3cc(Cl)cc4c3O[C@@H](c3onc5c3CNCC5)C4)c2s1 [(R)-1-((4-(5-chloro-2-(4,5,6,7-tetrahydroisoxazolo[4,3-c]pyridin-3-yl)-2,3-dihydrobenzofuran-7-yl)thieno[3,2-d]pyrimidin-6-yl)methyl)pyrrolidine-2,5-dione]",< 1000 nM
3,"CCC(O)c1cc2nccc(-c3cc(Cl)cc4c3O[C@@H](c3onc5c3CNCC5)CC4)c2s1 (stereo partly drawn) [1-(7-((R)-6-chloro-2-(4,5,6,7-tetrahydroisoxazolo[4,3-c]pyridin-3-yl)chroman-8-yl)thieno[3,2-b]pyridin-2-yl)propan-1-ol]",< 1000 nM
4,"O=C(C1Cc2cc(Cl)cc(-c3ccnc4[nH]c(Cc5ccccc5)cc34)c2O1)N1CCNCC1 (stereo not shown) [(7-(2-benzyl-1H-pyrrolo[2,3-b]pyridin-4-yl)-5-chloro-2,3-dihydrobenzofuran-2-yl)(piperazin-1-yl)methanone]",1000 to 10000 nM
5,"CC(O)Cc1cc2nccc(-c3cc(Cl)cc4c3O[C@@H](C(=O)N3CCNCC3)C4)c2s1 (stereo partly drawn) [((2R)-5-chloro-7-(2-(2-hydroxypropyl)thieno[3,2-b]pyridin-7-yl)-2,3-dihydrobenzofuran-2-yl)(piperazin-1-yl)methanone]",< 1000 nM
6,"NC(=O)c1cc2nccc(-c3cc(Cl)cc4c3OC(C(=O)N3CCNCC3)C4)c2s1 (stereo not shown) [7-(5-chloro-2-(piperazine-1-carbonyl)-2,3-dihydrobenzofuran-7-yl)thieno[3,2-b]pyridine-2-carboxamide]",1000 to 10000 nM
7,"O=C(C1Cc2cc(Cl)cc(-c3ccnc4cccnc34)c2O1)N1CCNCC1 (stereo not shown) [(5-chloro-7-(1,5-naphthyridin-4-yl)-2,3-dihydrobenzofuran-2-yl)(piperazin-1-yl)methanone]",10000 to 30000 nM
8,"O=C(C1Cc2cc(Cl)cc(-c3ccnc4[nH]c(CO)cc34)c2O1)N1CCNCC1 (stereo not shown) [(5-chloro-7-(2-(hydroxymethyl)-1H-pyrrolo[2,3-b]pyridin-4-yl)-2,3-dihydrobenzofuran-2-yl)(piperazin-1-yl)methanone]",< 1000 nM
9,"CCC(O)c1cc2nccc(-c3cc(Cl)cc4c3O[C@@H](c3ocnc3CN3CCCC3)C4)c2s1 (stereo partly drawn) [1-(7-((R)-5-chloro-2-(4-(pyrrolidin-1-ylmethyl)oxazol-5-yl)-2,3-dihydrobenzofuran-7-yl)thieno[3,2-b]pyridin-2-yl)propan-1-ol]",< 1000 nM
10,"O=C(C1Cc2cc(Cl)cc(-c3ccnc4ccccc34)c2O1)N1CCNCC1 (stereo not shown) [(5-chloro-7-(quinolin-4-yl)-2,3-dihydrobenzofuran-2-yl)(piperazin-1-yl)methanone]",1000 to 10000 nM
11,"CCC(O)c1cc2ncnc(-c3cc(Cl)cc4c3O[C@@H](c3ocnc3CNCC(F)(F)F)C4)c2s1 (stereo partly drawn) [1-(4-((R)-5-chloro-2-(4-(((2,2,2-trifluoroethyl)amino)methyl)oxazol-5-yl)-2,3-dihydrobenzofuran-7-yl)thieno[3,2-d]pyrimidin-6-yl)propan-1-ol]",10000 to 30000 nM
12,"CCC(CO)c1cc2nccc(-c3cc(Cl)cc4c3O[C@@H](C(=O)N3CCNCC3)C4)c2s1 (stereo partly drawn) [((2R)-5-chloro-7-(2-(1-hydroxybutan-2-yl)thieno[3,2-b]pyridin-7-yl)-2,3-dihydrobenzofuran-2-yl)(piperazin-1-yl)methanone]",< 1000 nM
13,"CN[C@H]1CCCN(C(=O)[C@H]2Cc3cc(Cl)cc(-c4ccnc5cc(CO)sc45)c3O2)C1 [((R)-5-chloro-7-(2-(hydroxymethyl)thieno[3,2-b]pyridin-7-yl)-2,3-dihydrobenzofuran-2-yl)((S)-3-(methylamino)piperidin-1-yl)methanone]",< 1000 nM
14,"O=C(C1Cc2cc(Cl)cc(-c3ccnc4c(F)cccc34)c2O1)N1CCNCC1 (stereo not shown) [(5-chloro-7-(8-fluoroquinolin-4-yl)-2,3-dihydrobenzofuran-2-yl)(piperazin-1-yl)methanone]",10000 to 30000 nM
15,"O=C(C1Cc2cc(Cl)cc(-c3ccnc(NCc4ccccc4)c3)c2O1)N1CCNCC1 (stereo not shown) [(7-(2-(benzylamino)pyridin-4-yl)-5-chloro-2,3-dihydrobenzofuran-2-yl)(piperazin-1-yl)methanone]",1000 to 10000 nM
16,"CC[C@@H](O)c1cc2nccc(-c3cc(Cl)cc4c3O[C@](C)(c3onc5c3CNCC5)C4)c2s1 [(R)-1-(7-((S)-5-chloro-2-methyl-2-(4,5,6,7-tetrahydroisoxazolo[4,3-c]pyridin-3-yl)-2,3-dihydrobenzofuran-7-yl)thieno[3,2-b]pyridin-2-yl)propan-1-ol]",< 1000 nM
17,"C[C@@H]1CN(C(=O)C2Cc3cc(Cl)cc(-c4ccnc5[nH]ccc45)c3O2)CCN1 (stereo partly drawn) [(5-chloro-7-(1H-pyrrolo[2,3-b]pyridin-4-yl)-2,3-dihydrobenzofuran-2-yl)((R)-3-methylpiperazin-1-yl)methanone]",1000 to 10000 nM
18,"CN(C)C(=O)C1Cc2nccc(-c3cc(Cl)cc4c3O[C@@H](c3onc5c3CNCC5)C4)c2C1 (stereo partly drawn) [4-((R)-5-chloro-2-(4,5,6,7-tetrahydroisoxazolo[4,3-c]pyridin-3-yl)-2,3-dihydrobenzofuran-7-yl)-N,N-dimethyl-6,7-dihydro-5H-cyclopenta[b]pyridine-6-carboxamide]",1000 to 10000 nM
19,"COc1ccc2c(-c3cc(Cl)cc4c3OC(C(=O)N3CCNCC3)C4)ccnc2c1 (stereo not shown) [(5-chloro-7-(7-methoxyquinolin-4-yl)-2,3-dihydrobenzofuran-2-yl)(piperazin-1-yl)methanone]",1000 to 10000 nM
20,"CCC(O)c1cc2nccc(-c3cc(Cl)cc4c3O[C@@H](c3ocnc3CNCCO)C4)c2s1 (stereo partly drawn) [1-(7-((R)-5-chloro-2-(4-(((2-hydroxyethyl)amino)methyl)oxazol-5-yl)-2,3-dihydrobenzofuran-7-yl)thieno[3,2-b]pyridin-2-yl)propan-1-ol]",< 1000 nM

# The remaining lines, values ahead:
row,IC50,Compound
1,< 1000 nM,"CCC(O)c1cc2nccc(-c3cc(Cl)cc4c3O[C@@H](c3onc5c3CN(C)CC5)C4)c2s1 (stereo partly drawn) [drawing 1573, 1-(7-((R)-5-chloro-2-(5-methyl-4,5,6,7-tetrahydroisoxazolo[4,3-c]pyridin-3-yl)-2,3-dihydrobenzofuran-7-yl)thieno[3,2-b]pyridin-2-yl)propan-1-ol]"
2,< 1000 nM,"Cn1nc2c(c1[C@H]1Cc3cc(Cl)cc(-c4ncnc5cc(CO)oc45)c3O1)CNCC2 [(R)-(4-(5-chloro-2-(2-methyl-4,5,6,7-tetrahydro-2H-pyrazolo [4,3-c]pyridin-3-yl)-2,3-dihydrobenzofuran-7-yl)furo[3,2-d]pyrimidin-6-yl)methanol]"
3,1000 to 10000 nM,"O=C([C@H]1Cc2cc(Cl)cc(-c3ccnc4cc(CO)sc34)c2O1)N1CCn2cnnc2C1 [(R)-(5-chloro-7-(2-(hydroxymethyl)thieno[3,2-b]pyridin-7-yl)-2,3-dihydrobenzofuran-2-yl)(5,6-dihydro-[1,2,4]triazolo[4,3-a]pyrazin-7(8H)-yl)methanone]"
4,< 1000 nM,"CCC(=O)NCc1cc2nccc(-c3cc(Cl)cc4c3O[C@@H](c3onc5c3CNCC5)C4)c2s1 [(R)-N-((7-(5-chloro-2-(4,5,6,7-tetrahydroisoxazolo[4,3-c]pyridin-3-yl)-2,3-dihydrobenzofuran-7-yl)thieno[3,2-b]pyridin-2-yl)methyl)propionamide]"
5,< 1000 nM,"Clc1cc2c(c(-c3ccnc4cc(-c5cc[nH]n5)sc34)c1)O[C@@H](c1onc3c1CNCC3)C2 [(R)-3-(7-(2-(1H-pyrazol-3-yl)thieno[3,2-b]pyridin-7-yl)-5-chloro-2,3-dihydrobenzofuran-2-yl)-4,5,6,7-tetrahydroisoxazolo[4,3-c]pyridine]"
6,< 1000 nM,"OCc1cc2ncnc(-c3cc(Cl)cc4c3O[C@@H](c3onc5c3CNCC5)C4)c2s1 [(R)-(4-(5-chloro-2-(4,5,6,7-tetrahydroisoxazolo[4,3-c]pyridin-3-yl)-2,3-dihydrobenzofuran-7-yl)thieno[3,2-d]pyrimidin-6-yl)methanol]"
7,< 1000 nM,"O[C@@]1(c2cc3nccc(-c4cc(Cl)cc5c4O[C@@H](c4onc6c4CNCC6)C5)c3s2)CCOC1 [(S)-3-(7-((R)-5-chloro-2-(4,5,6,7-tetrahydroisoxazolo[4,3-c]pyridin-3-yl)-2,3-dihydrobenzofuran-7-yl)thieno[3,2-b]pyridin-2-yl)tetrahydrofuran-3-ol]"
8,< 1000 nM,"N#Cc1cc2nccc(-c3cc(Cl)cc4c3O[C@@H](c3onc5c3CNCC5)C4)c2cc1F [(R)-4-(5-chloro-2-(4,5,6,7-tetrahydroisoxazolo[4,3-c]pyridin-3-yl)-2,3-dihydrobenzofuran-7-yl)-6-fluoroquinoline-7-carbonitrile]"
9,< 1000 nM,"O=C([C@H]1Cc2cc(Cl)cc(-c3ccnc4ccoc34)c2O1)N1CCNCC1 [(R)-(5-chloro-7-(furo[3,2-b]pyridin-7-yl)-2,3-dihydrobenzofuran-2-yl)(piperazin-1-yl)methanone]"
10,< 1000 nM,"Cc1cc2ncnc(-c3cc(Cl)cc4c3O[C@@H](C(=O)N3CCNCC3)C4)c2s1 [(R)-(5-chloro-7-(6-methylthieno[3,2-d]pyrimidin-4-yl)-2,3-dihydrobenzofuran-2-yl)(piperazin-1-yl)methanone]"
11,1000 to 10000 nM,"Clc1cc2c(c(-c3ncnc4cc(Cl)ccc34)c1)O[C@@H](c1onc3c1CNCC3)C2 [(R)-3-(5-chloro-7-(7-chloroquinazolin-4-yl)-2,3-dihydrobenzofuran-2-yl)-4,5,6,7-tetrahydroisoxazolo[4,3-c]pyridine]"
12,1000 to 10000 nM,"O=C([C@H]1Cc2cc(Cl)cc(-c3ccnc4sccc34)c2O1)N1CCNCC1 [(R)-(5-chloro-7-(thieno[2,3-b]pyridin-4-yl)-2,3-dihydrobenzofuran-2-yl)(piperazin-1-yl)methanone]"
13,< 1000 nM,"O=C([C@H]1Cc2cc(Cl)cc(-c3ccnc4cc(CO)oc34)c2O1)N1CCNCC1 [(R)-(5-chloro-7-(2-(hydroxymethyl)furo[3,2-b]pyridin-7-yl)-2,3-dihydrobenzofuran-2-yl)(piperazin-1-yl)methanone]"
14,< 1000 nM,"OCc1cc2ncnc(-c3cc(Cl)cc4c3O[C@@H](c3onc5c3CNCC5)C4)c2o1 [(R)-(4-(5-chloro-2-(4,5,6,7-tetrahydroisoxazolo[4,3-c]pyridin-3-yl)-2,3-dihydrobenzofuran-7-yl)furo[3,2-d]pyrimidin-6-yl)methanol]"
